Laboratory results reported in US10584116B2, “Heterocyclic sulfonamide derivative and medicine containing same” (EA Pharma Co., Ltd., priority 2016, dated 2020).

Assays:
human TRPA1 = human TRPA1 (Homo sapiens (Human), UniProt O75762); experiment: Measurement of TRPA1 antagonist activity (intracellular calcium increase induced by allylisothiocyanate in 293T cells transfected with human TRPA1); format: cell-based; conditions: 293T cells expressing human TRPA1, allylisothiocyanate stimulation, FLIPR Calcium4 fluorescence; read-out: hTRPA1 IC50
Sequence of human TRPA1 (O75762 whole entry): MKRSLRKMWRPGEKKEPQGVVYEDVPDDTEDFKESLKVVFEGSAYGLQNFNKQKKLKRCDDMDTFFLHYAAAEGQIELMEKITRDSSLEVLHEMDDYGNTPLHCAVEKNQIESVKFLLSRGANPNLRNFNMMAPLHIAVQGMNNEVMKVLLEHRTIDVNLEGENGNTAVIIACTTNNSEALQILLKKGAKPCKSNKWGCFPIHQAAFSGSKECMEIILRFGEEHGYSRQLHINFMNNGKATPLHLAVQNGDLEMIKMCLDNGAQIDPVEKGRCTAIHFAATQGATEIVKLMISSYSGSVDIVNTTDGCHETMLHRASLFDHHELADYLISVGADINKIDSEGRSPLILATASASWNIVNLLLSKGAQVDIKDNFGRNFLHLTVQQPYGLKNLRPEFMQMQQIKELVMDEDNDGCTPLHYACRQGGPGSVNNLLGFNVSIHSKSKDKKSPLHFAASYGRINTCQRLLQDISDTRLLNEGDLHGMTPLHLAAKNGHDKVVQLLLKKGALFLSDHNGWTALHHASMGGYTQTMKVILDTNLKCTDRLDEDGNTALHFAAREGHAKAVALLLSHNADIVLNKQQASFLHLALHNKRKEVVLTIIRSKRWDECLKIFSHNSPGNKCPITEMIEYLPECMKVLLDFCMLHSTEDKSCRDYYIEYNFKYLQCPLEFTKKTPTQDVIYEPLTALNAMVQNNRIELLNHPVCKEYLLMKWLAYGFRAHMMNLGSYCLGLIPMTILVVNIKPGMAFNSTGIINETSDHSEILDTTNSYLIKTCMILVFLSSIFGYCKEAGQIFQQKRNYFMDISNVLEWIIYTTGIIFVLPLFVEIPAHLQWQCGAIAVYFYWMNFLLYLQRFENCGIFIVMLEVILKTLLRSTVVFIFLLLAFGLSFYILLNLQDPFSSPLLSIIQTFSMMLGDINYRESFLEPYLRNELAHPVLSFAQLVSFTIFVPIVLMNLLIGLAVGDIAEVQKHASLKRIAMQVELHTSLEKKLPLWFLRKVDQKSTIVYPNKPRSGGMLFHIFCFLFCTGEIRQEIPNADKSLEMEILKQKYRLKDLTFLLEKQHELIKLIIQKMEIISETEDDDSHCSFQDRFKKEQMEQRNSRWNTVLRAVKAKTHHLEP

TRPA1 channel = TRPA1 channel (Rattus norvegicus (Rat), UniProt Q6RI86); experiment: AITC-induced rat blood flow evaluation test; format: in vivo; conditions: for rat blood flow model (% inh.): oral, 60 min before AITC (1%) application to ear, male SD rats
Sequence of TRPA1 channel (Q6RI86 whole entry): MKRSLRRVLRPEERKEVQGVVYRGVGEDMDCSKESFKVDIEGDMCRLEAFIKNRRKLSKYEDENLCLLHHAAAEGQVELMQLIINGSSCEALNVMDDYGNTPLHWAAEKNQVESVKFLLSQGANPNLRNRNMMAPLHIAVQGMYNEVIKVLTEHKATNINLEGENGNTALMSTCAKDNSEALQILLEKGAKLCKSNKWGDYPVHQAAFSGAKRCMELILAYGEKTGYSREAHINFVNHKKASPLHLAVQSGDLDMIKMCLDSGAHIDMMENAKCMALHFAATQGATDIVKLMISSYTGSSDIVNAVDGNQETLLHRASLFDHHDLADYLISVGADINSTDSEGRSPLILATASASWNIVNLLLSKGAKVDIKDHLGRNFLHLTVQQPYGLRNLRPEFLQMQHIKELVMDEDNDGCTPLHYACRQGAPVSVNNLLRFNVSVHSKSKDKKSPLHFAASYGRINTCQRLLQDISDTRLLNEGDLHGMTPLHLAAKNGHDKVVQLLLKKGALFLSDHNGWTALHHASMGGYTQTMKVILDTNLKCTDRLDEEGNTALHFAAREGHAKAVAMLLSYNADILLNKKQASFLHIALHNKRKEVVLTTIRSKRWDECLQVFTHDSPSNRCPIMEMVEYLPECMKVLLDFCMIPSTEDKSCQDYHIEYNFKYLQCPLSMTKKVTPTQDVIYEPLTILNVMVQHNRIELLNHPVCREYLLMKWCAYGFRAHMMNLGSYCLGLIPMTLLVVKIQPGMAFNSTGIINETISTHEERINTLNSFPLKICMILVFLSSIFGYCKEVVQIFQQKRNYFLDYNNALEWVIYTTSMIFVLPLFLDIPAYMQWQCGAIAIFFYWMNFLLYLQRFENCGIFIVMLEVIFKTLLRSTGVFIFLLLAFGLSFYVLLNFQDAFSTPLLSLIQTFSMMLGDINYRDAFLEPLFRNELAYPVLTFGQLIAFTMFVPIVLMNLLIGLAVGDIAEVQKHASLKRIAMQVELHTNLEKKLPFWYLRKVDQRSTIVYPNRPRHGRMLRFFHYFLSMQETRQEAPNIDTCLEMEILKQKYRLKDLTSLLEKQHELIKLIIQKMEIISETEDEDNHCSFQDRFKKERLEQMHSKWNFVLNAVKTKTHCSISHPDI
Protocol: AITC-Induced Rat Blood Flow Evaluation Test
To evaluate the effectiveness of the test substance in vivo, allylisothiocyanate (AITC)-induced blood flow evaluation test was performed using rat.
AITC is a selective agonist of the TRPA1 channel, and causes an increase in the peripheral blood flow through TRPA1 activation when applied to animal. Therefore, the intensity of the TRPA1 antagonist action of the test substance in the living body can be evaluated by measuring the increase in the peripheral blood flow after AITC application.
1. Administration of Test Substance to Animal
As the animal, 9-11-week-old male SD rats were used. A test substance was orally administered 60 min before AITC application and evaluated. On the previous day, the blood flow was measured when vehicle was administered to the same individual.
2. Evaluation of AITC-Induced Blood Flow
Under isoflurane anesthesia, the rats were placed in a prone position and a laser was irradiated with a probe of a laser Doppler flowmeter (OMEGA FLOW FLO-N1 neuro science, inc) at a distance of 1 cm from the ear of the rat, and the blood flow was measured, which was recorded using Power lab. After confirmation of stable blood flow, 15 μL of AITC (1%) solution was applied to be spread on the ear of the rat and the blood flow was measured for 20 min.
3. Calculatuin of Inhibitory Rate
Mean blood flow for 10 seconds at each analysis time point (1, 5, 10, 15, 20 min) was calculated, and the amount of change from the blood flow before AITC application was calculated as AUC (Area under the curve). AUC (% of baseline) was determined by normalizing the value obtained by (mean of AUC after test substance administration/mean of AUC after vehicle administration to the same individual)×100 with the ratio of AUC obtained by vehicle administration for the both days. The inhibition ratio was determined by 100−AUC (% of baseline).

| Structure (SMILES) | IC50 (human TRPA1) | also measured |
| --- | --- | --- |
| CC(C)n1c(=O)c(CNC(=O)[C@@H]2CCCN2S(=O)(=O)c2cc3ccccc3o2)cn(-c2ccc(C(F)(F)F)cc2)c1=O [Example 1, (2S)-1-(benzofuran-2-ylsulfonyl)-N-[[3-isopropyl-2,4-dioxo-1-[4-(trifluoromethyl)phenyl]pyrimidin-5-yl]methyl]pyrrolidine-2-carboxamide] | 16 nM | AITC-induced increase in the blood flow (TRPA1 channel; FIG. 1, rats, doses 0.3, 1 and 3 mg/kg): suppressed; rat blood flow model (% inh.) (TRPA1 channel; dose 0.3 mg/kg): 45 % inh.; rat blood flow model (% inh.) (TRPA1 channel; dose 1 mg/kg): 56 % inh.; rat blood flow model (% inh.) (TRPA1 channel; dose 3 mg/kg): 58 % inh. |
| CC(C)n1cc(CNC(=O)[C@@H]2CCCN2S(=O)(=O)c2cc3cnccc3o2)cc(-c2ccc(C(F)(F)F)cc2)c1=O [Example 46, (2S)-1-fro[3,2-c]pyridin-2-ylsulfonyl-N-[[1-isopropyl-6-oxo-5-[4-(trifluoromethyl)phenyl]-3-pyridyl]methyl]pyrrolidine-2-carboxamide] | 98 nM | – |
| CC(C)n1c(=O)c(CNC(=O)[C@@H]2CCCN2S(=O)(=O)c2cc3ccccc3o2)cn(-c2ccc(F)cc2)c1=O [Example 38, (2S)-1-(benzofuran-2-ylsulfonyl)-N-[[1-(4-fluorophenyl)-3-isopropyl-2,4-dioxo-pyrimidin-5-yl]methyl]pyrrolidine-2-carboxamide] | 240 nM | – |
| CC(C)n1c(=O)c(CNC(=O)[C@@H]2CCCN2S(=O)(=O)c2cc3cnccc3o2)cn(-c2ccc(C(F)(F)F)nc2)c1=O [Example 32, (2S)-1-fro[3,2-c]pyridin-2-ylsulfonyl-N-[[3-isopropyl-2,4-dioxo-1-[6-(trifluoromethyl)-3-pyridyl]pyrimidin-5-yl]methyl]pyrrolidine-2-carboxamide] | 570 nM | – |
| Cc1ccc2oc(S(=O)(=O)N3CCC[C@H]3C(=O)NCc3cn(-c4ccc(C(F)(F)F)cc4)c(=O)n(C(C)C)c3=O)cc2c1 [Example 25, (2S)-N-[[3-isopropyl-2,4-dioxo-1-[4-(trifluoromethyl)phenyl]pyrimidin-5-yl]methyl]-1-(5-methylbenzofuran-2-yl)sulfonyl-pyrrolidine-2-carboxamide] | 420 nM | – |
| CC(C)n1cc(CNC(=O)[C@@H]2CCCN2S(=O)(=O)c2cc3ccccc3o2)cc(-c2ccc(C(F)(F)F)nc2)c1=O [Example 48, (2S)-1-(benzofuran-2-ylsulfonyl)-N-[[1-isopropyl-6-oxo-5-[6-(trifluoromethyl)-3-pyridyl]-3-pyridyl]methyl]pyrrolidine-2-carboxamide] | 210 nM | – |
| CC(C)n1cc(CNC(=O)[C@@H]2[C@@H](O)CCN2S(=O)(=O)c2cc3cc(F)ccc3o2)cc(-c2ccc(C(F)(F)F)cc2)c1=O [Example 47, (2S,3S)-1-(5-fluorobenzofuran-2-yl)sulfonyl-3-hydroxy-N-[[1-isopropyl-6-oxo-5-[4-(trifluoromethyl)phenyl]-3-pyridyl]methyl]pyrrolidine-2-carboxamide] | 230 nM | – |
| CC(C)n1cc(-c2ccc(C(F)(F)F)cc2)cc(CNC(=O)[C@@H]2CCCN2S(=O)(=O)c2cc3c(F)cccc3o2)c1=O [Example 44, (2S)-1-(4-fluorobenzofuran-2-yl)sulfonyl-N-[[1-isopropyl-2-oxo-5-[4-(trifluoromethyl)phenyl]-3-pyridyl]methyl]pyrrolidine-2-carboxamide] | 440 nM | – |
